Assay results from patent publication EP1779117B1, “METHODS FOR MEASURING ADAMTS13 ACTIVITY ON THE SURFACE OF PLATELETS” (American Diagnostica Inc., priority 2004, dated 2006).
Starred links: 1 amine or outer side, 2 acyl side, 3 side chain; linkers in the order of their positions; H or OH if unused. Residues, ends and D or L forms follow the SMILES beside them. *: point of attachment. EDANS = O=S(=O)(O)c1cccc2c(NCCN*)cccc12; pNA = O=[N+]([O-])c1ccc(N*)cc1; AMC = Cc1cc(=O)oc2cc(N*)ccc12; Suc = O=C(CCC(=O)[*:2])[*:1]

What was measured:
[1] = tested on: ADAMTS13; assay: Cleavage of peptidyl substrates by ADAMTS13 in PRP (optical density / fluorescence); assay type: biochemical; conditions: for cleavage by ADAMTS13 in PRP: normal PRP 20 µl, 10 mM Tris-HCl pH 8.0, 37° C, Ex 360 nm/ Em 460 nm
Procedure: As discussed above, Furlan et al. reported that some peptidyl-pNA moieties, such as XLY-pNA and XVY-pNA, were not substrates for ADAMTS13. We prepared LVY-pNA and tested it for its ability to be cleaved by ADAMTS 13. The results shown in Figure 2 confirm the findings of Furlan et al., i.e., LVY-pNA was not cleaved by ADAMTS13.
In order to determine the effect of modifying the length of the peptide sequence conjugated to the AMC fluorochrome, normal PRP (20 µl) was incubated at 37° C with a final concentration of 0.8 mM Suc-LLVY-AMC or LVY-AMC in 10 mM Tris-HCl pH 8.0 buffer in total volume of 200 µl. Fluorescence was measured using a microtiter fluorophotometric plate reader (Ex 360 nm/ Em 460 nm).

[2] = tested on: ADAMTS13 found on platelets; assay: FRET substrate cleavage by isolated platelets; assay type: biochemical; conditions: 8 µg/ml substrate, 10mM Tris-HCl pH 8.0, 37°C, Ex 360 nm/ Em 440 nm, Figure 4
Procedure: ADAMTS13 activity was measured using a fluorescent substrate attached to a donor moiety and an acceptor moiety that functions by fluorescence resonance energy transfer (FRET). The ADAMTS 13 selective substrate, NH2-Arg-Lys(DABCYL)-NLVYMVTGD(EDANS)-Arg-COOH, was used in this example. The NLVYMVTGD peptide sequence of this substrate is homologous to the ADAMTS13 cleavage site on VWF. The intact peptidyl substrate has low fluorescence, due to quenching of the […]. Cleavage of the substrate between the tyrosine and methionine of the peptide sequence results in an increase in fluorescence.
Isolated platelets in 10mM Tris-HCl pH 8.0 assay buffer were incubated with a final concentration of 8 µg/ml of the FRET substrate at 37°C. The fluorescence was measured in a spectrofluorometric plate reader (Ex 360 nm/ Em 440 nm). […] The skilled artisan can design other FRET substrates for measuring ADAMTS 13 activity using his or her own knowledge and the teachings herein.

Cc1cc(=O)oc2cc(NC(=O)[C@H](Cc3ccc(O)cc3)NC(=O)[C@@H](NC(=O)[C@@H](N)CC(C)C)C(C)C)ccc12 [LVY-AMC, Leu-Val-Tyr-AMC] (H-Leu-Val-Tyr-{AMC})
cleavage by ADAMTS13 in PRP ([1]; 0.8 mM substrate, Figure 3): cleaved

CC(C)C[C@H](N)C(=O)N[C@H](C(=O)N[C@@H](Cc1ccc(O)cc1)C(=O)Nc1ccc([N+](=O)[O-])cc1)C(C)C [LVY-pNA] (H-Leu-Val-Tyr-pNA)
cleavage by ADAMTS13 ([1]; LVY-pNA tested as substrate, Figure 2): not cleaved

NH2-Arg-Lys-(DABCYL)- Asn-Leu- Val-Tyr-Met- Val- Thr-Gly-Asp-(EDANS)-Arg-COOH ({H2N-Arg-K(DABCYL)}-NLVYMVTGD(EDANS)R-OH; also: EDANS after Asp (on Asp side chain or between Asp and Arg))
fluorescence on incubation with platelets (cleavage of FRET substrate) [2]: increased fluorescence over time

Cc1cc(=O)oc2cc(NC(=O)[C@H](Cc3ccc(O)cc3)NC(=O)[C@@H](NC(=O)[C@H](CC(C)C)NC(=O)[C@H](CC(C)C)NC(=O)CCC(=O)O)C(C)C)ccc12 [Suc-LLVY-AMC, Suc-Leu-Leu-Val-Tyr-AMC] (Suc-LLVY-{AMC})
cleavage by ADAMTS13 in PRP ([1]; 0.8 mM substrate, Figure 3): cleaved | fluorescence signal over time compared to the other AMC substrate ([1]; normal PRP, 0.8 mM substrate, 37° C, Figure 3): higher signal over time
